Experimental data from US20110124842A1 (priority 2003, published 2011).
Where two headings read alike, the source gives them in different places.

Assays:
IgG 4E10 = assay: Competitive ELISA (IC50): peptide competes with biotinylated 4E10-epitope peptide for IgG 4E10; type: binding, human
Procedure: IC50, were determined by competitive ELISA using a constant concentration of biotinylated peptide and IgG with a variable concentration of gp41 peptides. Microwells were coated overnight at 4° C. with 50 μl PBS containing neutravidin (Pierce; 4 μg/ml). […] A mixture of a biotinylated 4E10-epitope peptide, […](biotin)-NH2 (SEQ ID NO: 88) (20 nM), IgG 4E10 (0.2 nM), and the competing peptide analog (3-fold dilution series starting at 10 μM) in 0.4% non-fat dry milk, 0.02% Tween and PBS was incubated in a separate 96-well plate at 37° C. for 2 hours. After washing the blocked plate, the mixture of 4E10, biotinylated peptide and competing peptide was added to the wells. After 20 minutes at room temperature, the Wells were washed five times, and a 1:500 dilution of goat anti-human IgG F(ab′)2 HRP conjugate (Pierce) was added. Following incubation at RT for 40 minutes, the wells were washed five times, and developed by adding 50 μl of TMB solution (Pierce) according to the manufacturer's instructions. After ˜20 minutes, wells containing TMB solution were stopped by adding 50 μl of H2SO4 (2M) and the O.D. at 450 nm was read on a microplate reader (Molecular Devices). The concentration of competitor peptide corresponding to a half-maximal signal (IC50) was determined by interpolation of the resulting binding curve. Each peptide competitor was tested in duplicate in at least two separate experiments.
IC50s were determined by competitive ELISA using a constant concentration of biotinylated peptide and IgG with a variable concentration of gp41 peptides. Microwells were coated overnight at 4° C. with 50 μl PBS containing neutravidin (Pierce; 4 μg/ml). […] Meanwhile, a mixture of a biotinylated 4E10-peptide epitope, […](biotin)-NH2 (SEQ ID NO: 88), (20 nM), IgG 4E10 (0.2 nM), and the competing peptide analogue (3-fold dilution series starting at 10 μM) in 0.4% NFDM, 0.02% Tween and PBS was incubated in a separate 96-well plate at 37° C. for 2 h. After washing the blocked plate, the mixture of 4E10, biotinylated peptide and competing peptide was added to the wells. After 20 min at room temperature, the wells were washed five times, and a 1:500 dilution of goat anti-human IgG F(ab′)2 HRP conjugate (Pierce) was added. Following incubation at RT for 40 min, the wells were washed five times, and developed by adding 50 μl of H2SO4 (2 M), and the O.D. at 450 nm was read on a microplate reader (Molecular Devices). The concentration of competitor peptide corresponding to a half-maximal signal (IC50) was determined by interpolation of the resulting binding curve. Each peptide competitor was tested in duplicate in at least two separate experiments.

HIV-1JR-FL = assay: Peptide effect on neutralization by antibodies and sera, pseudotyped virus, U87.CD4.CCR5 cells; type: cell-based; conditions: FIG. 50
Procedure: FIG. 50 represents graphs showing the effect of peptide […]-NH2 (SEQ ID NO: 8) on neutralization of HIV-1 by polyclonal antibodies and sera. HIV-1JR-FL, pseudotyped using the pNL4-3.Luc reporter plasmid, was assayed for neutralization using pooled polyclonal IgG from HIV-1 seropositive individuals (HIVIG), broadly neutralizing serum from the FDA2 individual and normal human serum spiked with 4E10 at 200 μg/ml in the undiluted serum. Neutralization assays were performed using U87.CD4.CCR5 cells as target cells, in the presence (open symbols) or absence (closed symbols) of peptide […]-NH2 (SEQ ID NO: 8). Note that the zero point in serum dilution corresponds to only 30 μg/ml 94-1 being present.
(§1) To further investigate the interaction of peptide analogs and 4E10, the inhibitory effect of the best analogs on neutralization by 4E10 was assessed. Neutralization assays were performed in two different formats. In the first, replication competent HIV-1SF162 was assayed for neutralization using TZM-b1 cells as indicator cells (Wei, X., 2002). Alternatively, a pseudotype assay was used in which recombinant HIV-1JR-CSF virions, competent for a single round of infection, were generated using the luciferase reporter plasmid pNL4-3.Luc.R-E-, as described previously (Connor, R. I., 1995; Zwick, M. B., 2003), and the pseudovirus assayed for neutralization using U87.CD4.CCR5 cells as target cells (Bjorndal, A., 1997). In all cases, the competitor peptide ([…]-NH2; SEQ ID NO: 8) and IgG 4E10 were pre-incubated for 30 minutes at 37° C. (60 μg/ml), then the mixture was added (1:1 by volume) to HIV-1, and the resulting mixture incubated for a further hour at 37° C. The mixture of peptide, 4E10, and HIV-1 was then added (1:1 by volume) to the target cells, and the assay developed using luciferase reagent (Promega) following 48-72 hour incubation at 37° C. The degree of virus neutralization was determined as a percentage reduction of viral infectivity against an Ab-free control. All experiments were performed in triplicate and repeated at least twice with similar results.

HIV-1SF162 = type: cell-based; conditions: peptide at 30 μg/ml, FIG. 49
Procedure: (§2) FIG. 49 is a bar graph showing the ability of peptide […]-NH2 (SEQ ID NO: 8) to block neutralization of HIV-1 by 4E10. Replication competent HIV-1 (SF 162 and JR-CSF), produced in human PBMCs, were assayed for neutralization by 4E10 (100 μg/ml) in TZM-b1 cells, in the presence (white bars) or absence (black bars) of an excess of peptide.
as §1, with “(60 μg/ml), then the mixture was added (1:1 by volume) to HIV-1, and the resulting mixture incubated for a further hour at 37° C. The mixture of peptide, 4E10, and HIV-1 was then added (1:1 by volume) to the target cells, and the assay developed using luciferase reagent (Promega) following 48-72 hour incubation at 37° C.” left out, “All experiments were performed in triplicate and repeated at least twice with similar results.” left out

HIV-1 JR-CSF = type: cell-based; conditions: JRCSF; peptide at 30 μg/ml; FIG. 49
Procedure: as §2
as §1, with “(60 μg/ml), then the mixture was added (1:1 by volume) to HIV-1, and the resulting mixture incubated for a further hour at 37° C. The mixture of peptide, 4E10, and HIV-1 was then added (1:1 by volume) to the target cells, and the assay developed using luciferase reagent (Promega) following 48-72 hour incubation at 37° C.” left out, “All experiments were performed in triplicate and repeated at least twice with similar results.” left out

In the case of “NWFDITNWLWYIKKKK [Peptide 94-1, NWFDITNWLWYIKKKK-NH2]”, the “improvement in 4E10 binding (IC50) over the starting peptide NWFDITNWLWKKKK-NH2” value (IgG 4E10) is reported as 4 fold, the “improvement in IC50 compared to KGND” value (IgG 4E10) is reported as “over 1000 fold” and the IC50 (IgG 4E10; Table 5, unconstrained peptide analogs, 4E10 binding, read-out: IC50) is reported as 10 nM. For the same sequence, the IC50 (IgG 4E10; Table 7, 4E10 peptide epitopes, read-out: IC50) was 10 nM, the “higher affinity of 4E10 than to the original peptide KGND” value (IgG 4E10; as determined by surface plasmon resonance and ELISA) was “approximately 10^3 fold” and the IC50 (IgG 4E10; read-out: IC50 (4E10 binding, competitive ELISA)) was 10 nM. The “block of neutralization by normal sera spiked with 4E10” value (HIV-1JR-FL) was “blocks neutralization”, the “block of neutralization by the reference sera FDA2” value (HIV-1JR-FL) was “does not block neutralization” and the “block of neutralization by polyclonal IgG from HIV-1 infected donors” value (HIV-1JR-FL; HIVIG) was “does not block neutralization”. The “block of neutralization by 4E10” value (HIV-1SF162) was “could block the neutralization” and the “block of neutralization by 4E10” value (HIV-1 JR-CSF) was “could block the neutralization”.
